Patent US6686388B2, “Regulators of the hedgehog pathway, compositions and uses related thereto” (priority 1999, dated 2004)
Where two headings read alike, the source gives them in different places.

What was measured:
medulloblastoma cells = assay: tritiated thymidine incorporation assay in medulloblastoma cells; format: cell-based, mouse; details: typical assay
Experimental: In order to test the effects of cAMP agonists on the proliferation of Hh-pathway tumor cells, primary medulloblastoma cell cultures were similarly treated with forskolin or control vehicle. From 2-3 DIV, bromodeoxyuridine (BrdU) was then added to the cultures, to label proliferating cells. On 3 DIV, cells were fixed with paraformaldehyde. Cells were then immunostained with an antibody to BrdU to identify cells that had been proliferating, and counterstained with bisbenzimide to determine total cell number. The number of total and BrdU(+) cells were then scored in multiple fields in wells of each condition, to determine the percent proliferating cells under different treatments. The scorer was blinded as to the treatments of the cells. […] Similar results were obtained when proliferation was measured using a tritiated thymidine incorporation assay, and other cAMP agents were also found to be effective.

Hh signaling = assay: Xgal staining of subcutaneous medulloblastoma tumors after drug infusion; format: in vivo, mouse; details: tumor infusion for several days, compared to control (water)
Text: (§1) To determine whether Hh signaling inhibitors can inhibit tumor growth in vivo, medulloblastoma cells from ptc-1 knockout mice were transplanted subcutaneously into athymic (“nude”) mice. After allowing time for the tumor cells to grow at the injection site, the transplanted mice were divided into groups, and treated with either control vehicle, or cAMP agonist drugs. In one set of experiments, tumors were infused with either H-forskolin, or water as a control. After several days of drug infusion, the mice were sacrificed, and the tumors were sectioned for histology. The transplanted medulloblastoma cells from the ptc knockout mice contain a lacZ transgene (encoding β-galactosidase), the expression of which is induced by Hh signaling. Therefore, the level of β-galactosidase in these cells indicates their level of […] signaling. Thus, in order to determine how effectively the infused drug inhibited Hh signaling in the tumor, the tumor sections were stained for β-galactosidase activity using the substrate Xgal, which stains expressing cells blue.

[1] = system: medulloblastoma cells from ptc-1 knockout mice; assay: growth of subcutaneous-transplanted medulloblastoma tumors in nude mice; format: in vivo, mouse
Text: as §1
In order to determine whether Hh pathway inhibitors can inhibit tumor growth in vivo, cAMP agonists were administered to mice that, as above, had subcutaneous medulloblastoma tumors. In one experiment, one group of mice received daily intraperitoneal injections of forskolin, while control mice received equivalent injections of vehicle (DMSO). The volumes of the tumors were regularly determined by measuring tumor dimensions with a caliper. In the mice treated with DMSO control, the tumors grew much more rapidly than in the mice treated with forskolin. […] In a similar experiment, H-forskolin or control vehicle was administered systemically to mice continuously, via an osmotic minipump that was implanted subcutaneously (and replaced regularly). Again in this experiment (FIG. 13), tumor size was smaller in the H-forskolin-treated mice than in the control mice.

[2] = system: medulloblastoma tumor cells; format: cell-based, mouse
Experimental: These medulloblastoma cells were derived from tumors that arose in the brains of mice heterozygous for an inactivating mutation in the ptc gene (“heterozygous ptc knockout mice”). Mutation of ptc leads to inappropriate activation of the Hh signaling pathway, and in these ptc knockout mice, the ptc mutation results in the occurrence of medulloblastomas. The medulloblastoma tumor cells were placed into primary culture in neuronal culture medium (Basal Medium of Eagle, with 10% calf serum, 25 mM KCl, and 2 mM glutamine). Cells were typically seeded at 0.5 or 1.0×10^6 cells/well of a 24 well plate, in 0.5 ml of medium per well. […] From 2-3 DIV, bromodeoxyuridine (BrdU) was added to the cultures, to label proliferating cells. On 3 DIV, cells were fixed with paraformaldehyde. […] The numbers of total and BrdU(+) cells were then scored in multiple fields in wells of each condition, to determine the percent proliferating cells under different treatments. The scorer was blinded as to the treatments of the cells.
(§2) To determine the effects of cAMP agonist drugs on the Hedgehog (Hh) signaling pathway in tumor cells, medulloblastoma cells were grown in primary culture. These medulloblastoma brain tumors arose in mice heterozygous for an inactivating mutation in the ptc-1 gene (“heterozygous ptc knockout mice”). Mutation of ptc-1 leads to inappropriate activation of the Hh signaling pathway, and in these ptc-1 knockout mice, the ptc-1 mutation results in the occurrence of medulloblastoma. The medulloblastoma tumor cells were placed into primary culture in neuronal culture medium (Basal Medium of Eagle, with 10% serum, 25 mM KCl, and 2 mM glutamine). Cells were typically seeded at 0.5 or […] cells/well of a 24 well plate, in 0.5 ml of medium. One day after seeding (i.e., on 1 day in vitro, or DIV), cells were treated with forskolin (50 μM final), or an equal amount of vehicle (0.1% DMSO). On 3 DIV, RNA was isolated from the cells, and the expression of the Hh-response gene gli-1 was determined by RT-PCR analysis.
In order to test the effects of cAMP agonists on the proliferation of Hh-pathway tumor cells, primary medulloblastoma cell cultures were similarly treated with forskolin or control vehicle. From 2-3 DIV, bromodeoxyuridine (BrdU) was then added to the cultures, to label proliferating cells. On 3 DIV, cells were fixed with paraformaldehyde. […] The number of total and BrdU(+) cells were then scored in multiple fields in wells of each condition, to determine the percent proliferating cells under different treatments. The scorer was blinded as to the treatments of the cells.

gli-1 = gli-1 expression by RT-PCR in primary medulloblastoma cells; format: cell-based, mouse; details: 50 μM, RNA on 3 DIV
Experimental: as §2

[3] = system: hair follicle development; assay: topical application on newborn Ptc-lacZ mice, skin histology; format: in vivo, mouse; details: 5 mM in DMSO topical, twice a day, 7 days
Experimental: This effect may be due to the inhibition of the Hh pathway by forskolin, as the Hh pathway plays a critical role in hair follicle development (FIG. 14). Postnatal day 2 mouse pups were used for this experiment. For each pup, 5 μl of DMSO or forskolin in DMSO (5 mM) was applied on the center of the back using a micro-pipette tip. The same procedure is repeated twice, with a total of […] compound applied each time. The procedure was performed on the same animal twice a day for a period of 7 days. The pups were then sacrificed and the skin was taken from the applied area for histology analysis. H&E staining was performed on the paraffin embedded sections.

hair development = assay: injection of pregnant female mouse, hair development in the fetus; format: in vivo
Experimental: For these experiments, 20 μl of forskolin in DMSO (50 mM) was injected into a pregnant female mouse daily for E14.5 to E17.5 intraperitoneally. The mouse was sacrificed at E17.5 and the fetuses were removed for gross inspection. The skin from each fetus was processed for H&E staining.

[4] = system: basal cell carcinoma tissue; assay: subcutaneous injection near basal cell carcinoma, histology; format: in vivo, mouse; details: subcutaneous near the tumor, once a day, 21 days
Experimental: Experiments were conducted to determine the effect of cAMP elevating agents on basal cell carcinoma tissue. A solution of forskolin (50 mM) in ethanol was diluted 1:2 with cremophor (resulting in 50% ethanol/50% cremophor), then diluted 1:5 with PBS or normal saline (resulting in final 10% ethanol/10% cremophor/80% PBS or saline. The solution was administered by subcutaneous injection at different sites near the tumor (e.g., within a few millimeters of the margin), but not into the tumor itself. Treatment continued once a day every 24 hours for 21 days, 1 μl compound/g weight. After treatment, tumor size was measured, and the tumor was removed and analyzed by histology to determine morphological changes. Untreated BCC tissue is depicted in FIG. 16, and forskolin-treated tissue is depicted in FIGS. 17-18.

hair follicles = assay: hydron pellet implantation into ptc-1 lacZ skin punches, 8 days of culture; format: cell-based, mouse; details: implanted pellets, Shh supplied with the culture medium
Experimental: FIG. 19 depicts hydron pellet implantation into 3-day mouse ptc-1 lacZ skin punches after 8 days of culture. Ethanol, hydron polymer, and Shh or forskolin in PBS, respectively, were mixed according to the manufacturer's instructions, poured in 2 mm pellet casts and dried/UV-irradiated over night. Alternatively, 3 mg/ml of octylated Shh protein was added to the culture medium (on day 1, 3 and 5) for the medium control as well as the forskolin-pellet implant. 3-day-old skin was harvested from the backs of mouse pups transgenic for ptc-1 lacZ, as identified by lacZ reporter detection using tails, by standard procedures. 6 mm skin punches were taken using Miltex skin punches and incubated for 60 min. Pellets were inserted by carefully separating the dermal from the epidermal layer using forceps. Cultures were grown for 8 days, fixed in lacZ fixative according to standard protocols, rinsed and stained for lacZ over night at 37° C.
Results: (A) Untreated control, showing a small number of short hairs. […] Hair length and thickness of the dermis thickness are increased as well. Ptc-lacZ, a reporter gene indicative of Shh signaling is induced in follicular as well as basal cells (blue stain), although partially obscured by melanin. […] Note the highly localized area of follicle induction, corresponding to the area adjacent to bead insertion. […]

[5] = 10 μM, BrdU 2-3 DIV, fixed 3 DIV, typical experiment

C=CC1(C)CC(=O)C2(O)C(C)(O1)C(OC(=O)CCCN1CCN(C)CC1)C(O)C1C(C)(C)CCC(O)C12C (centres unmarked) [H-forskolin, 7-deacetyl-7-[O-(N-methylpiperazino)-gamma-butyryl]-forskolin]
inhibition of tritiated thymidine incorporation (medulloblastoma cells): 91% | Xgal staining of tumors (Hh signaling): reduced Xgal staining | tumor size ([1]; systemic, continuous via subcutaneous osmotic minipump, versus control mice): smaller

CC1=C2C[C@H]3[C@@H](CC=C4C[C@@H](O)CC[C@@]43C)[C@@H]2CC[C@]12O[C@@H]1C[C@H](C)CN[C@H]1[C@H]2C [cyclopamine]
inhibition of proliferation of the medulloblastoma cells ([2]; 10 μM): strongly inhibit proliferation

CC1=C2C(=O)[C@H]3[C@@H](CC=C4C[C@@H](O)CC[C@@]43C)[C@@H]2CC[C@]12O[C@@H]1C[C@H](C)CN[C@H]1[C@H]2C [jervine]
inhibition of proliferation of the medulloblastoma cells ([2]; 10 μM): strongly inhibit proliferation | percent proliferation (BrdU(+) cells) [2, 5]: 0.2%

C[C@H]1CC[C@]2(NC1)O[C@H]1C[C@H]3[C@@H]4CC[C@H]5C[C@@H](O)CC[C@]5(C)[C@H]4CC[C@]3(C)[C@H]1[C@@H]2C [tomatidine]
percent proliferation (BrdU(+) cells) [2, 5]: 5.9%

forskolin
inhibition of proliferation of the medulloblastoma cells ([2]; forskolin 50 μM): strongly inhibit proliferation | inhibition of proliferation ([2]; forskolin 50 μM versus DMSO control): 95% | percent proliferation (BrdU(+) cells) ([2]; forskolin 50 μM, typical experiment (FIG. 5)): 0.4% | gli-1 expression (gli-1): strongly inhibit gli-1 expression | inhibition of tritiated thymidine incorporation (medulloblastoma cells): 93% | Xgal staining of tumors (Hh signaling): lower Xgal staining | tumor regression in one treated mouse ([1]; daily intraperitoneal injections): regressed, disappeared, and has not reappeared in over 60 days | tumor growth ([1]; daily intraperitoneal injections, versus DMSO): did not grow excessively large | hair density and hair follicle structure [3]: decrease of hair density and abnormalities of hair follicle structure | hair development in the fetus (hair development; 20 μl of 50 mM in DMSO intraperitoneally daily E14.5 to E17.5): severe disruption of hair development | number of hair follicles in fetal skin (hair development; 20 μl of 50 mM in DMSO intraperitoneally daily E14.5 to E17.5, some fetuses): great reduction of the number of hair follicles | BCC tissue histology [4]: tumor shrinkage and/or cell death | hair follicles, hair length, pigmentation and dermis thickness (hair follicles): reduction of hair follicles, hair length, pigmentation and dermis thickness to levels comparable to the control
